From US20240251801A1, “COMPOSITIONS AND METHODS FOR IMPROVING PLANT HEALTH AND CONTROLLING PLANT DISEASE” (AgBiome, Inc., priority 2021, published 2024)

Assays:
Assay type in all cases: in vivo
[1] = tested on: Colletotrichum sublineolum; assay: Detached sorghum leaf piece assay, control of anthracnose; conditions: sorghum leaf pieces, strain 1×10^8 CFU/ml, pyraclostrobin 10 ppm
Protocol: (§1) For detached-leaf assays performed in the following examples, bacterial strains stored in a freezer (−80° C.) were each streaked onto Luria Bertani (LB) agar (25 g LB broth and 15 g agar per liter of deionized water) in an 8.5-cm diameter plastic plate. A single colony from the plate was picked and placed in 50 ml of either LB liquid broth or a liquid broth consisting of NaCl (5 g), tryptone (10 g), nutrient broth (8 g), CaCl2 (0.14 mM), MgCl2·6H2O (0.2 mM), and MnCl2·4H2O (0.01 mM) per liter of deionized water in a 250-ml flask. Calcium chloride (CaCl2), MgCl2, and MnCl2 were filtered sterilized using 0.22 μm vacuum filter and were then added to NaCl, tryptone, nutrient broth (which were autoclaved together). Cultures were harvested after 48 h by pelleting cells and re-suspending to original volume in sterile H2O. Colony forming units (CFU/mL) were determined using standard dilution plate count method, and plates were inspected for signs of contamination. Sterile distilled water was added to achieve a final concentration needed in detached-leaf or growth chamber strain evaluations. […]
Seven days post inoculation, the leaf pieces were assessed for anthracnose severity on a scale of 0-4 according to Prom et al., 2016 (Plant Path J. 15(1): 11-16), with few modifications. […] Data was analyzed using analysis of variance (ANOVA) in JMP® (version 14.0.0; SAS Institute Inc., Cary, NC). […]

Mycosphaerella fijiensis = assay: Grand Nain (Musa) leaf piece assay, control of black sigatoka; conditions: Grand Nain leaf pieces, strain 1×10^8 CFU/ml, mancozeb 10 ppm
Protocol: as §1
Data recorded were the most progressed stage on inoculated leaves, 3 to 4 weeks after inoculation (Stover 1986). Data were analyzed using analysis of variance (ANOVA) in PROC GLM of SAS (version 9.4; SAS Institute Inc., Cary, NC) and significant differences (P<0.05) were observed among treatments.

Podosphaera xanthii [2] = assay: Squash leaf disc assay with wettable powder formulations, control of powdery mildew; conditions: squash leaf discs, 150 μL, tebuconazole 10 ppm as control
Protocol: For the tray drying method, 829 grams of cell paste obtained from a liquid culture of ATP15329 was mixed with 18.24 g of glycerol and 72.95 g of microcel E using a food processor. Half of the cell paste was dried at 40° C. to a water activity of less than 0.30, at which time it contained 3.53E11 CFU/g. The other half was dried at 25° C. and 50% RH to a water activity of less than 0.6, at which time it contained 4.75E11 CFU/g. The dried powder formulation was stored in heat sealed mylar pouches at 4° C.
For the spray drying method, 200 grams of cell paste obtained from a liquid culture of ATP15329 was mixed with 22 g of skim milk powder using an emulsion blender. This material was spray dried at outlet temperature of 70° C., at which time it contained 7.86E10 CFU/g. The dried powder formulation was stored in heat sealed mylar pouches at 4° C.
This evaluation followed the protocol used in Example 3. Briefly, leaf disks were each sprayed with 150 μL of different formulations of the bacterial strain AIP015329, tebuconazole 10 ppm (fungicide control) on the adaxial surface 24 hours before inoculation with the fungal pathogen. After treatment, leaf disks were incubated in the dark for 24 hours at 23° C.
Leaf disks were inoculated on the treated leaf surface by spraying a conidial suspension (1×10^6 conidia/ml of sterile distilled water) of P. xanthii. Inoculated and non-inoculated/not treated controls were added. Treatments were placed into sealed clear plastic boxes and incubated for six days at 25° C. with a relative humidity of 80% and a 12 h photoperiod. Each treatment was rated on a disease severity scale from 0 to 4, with 0 being no symptoms and 4 being greater than 50% of the leaf disk covered with colonies. The number of powdery mildew colonies were also recorded for each treatment. This experiment was run once, with each treatment replicated three times. Data was analyzed in SAS JMP version 14.0.

Podosphaera xanthii [3] = assay: Squash leaf disc assay, control of powdery mildew on cucurbits; conditions: squash leaf discs, bacterial suspension 200 μL, tebuconazole 10 ppm
Protocol: as §1, with “contamination.” for “contamination. Sterile distilled water was added to achieve a final concentration needed in detached-leaf or growth chamber strain evaluations.”
Leaf disks were inoculated on the treated leaf surface by spraying a conidial suspension (1×10^6 conidia/ml of sterile distilled water) of P. xanthii (an isolate obtained from Dr. McGrath laboratory, Cornell University). […] The number of powdery mildew colonies were also recorded for each treatment. […] Data was analyzed in SAS JMP version 14.0.

What does the source list for COC(=O)N(OC)c1ccccc1COc1ccn(-c2ccc(Cl)cc2)n1 [Pyraclostrobin]?
Disease Control (%) Confirmation ([1]; confirmation screen with freshly grown culture): 79.2 (a) %; Disease Control (%) Primary Screen ([1]; treated 24 h before inoculation, rated 7 days post inoculation): 95.2 (a) %

With mancozeb as the molecule, how does the “Disease Control (%) Primary Screen” value (Mycosphaerella fijiensis; 3 to 4 weeks after inoculation) read?
Its value is 92.3 (a) %.

And the “Disease Control (%) Confirmation” value (Mycosphaerella fijiensis; confirmation)?
Its value is 81.0 (a) %.

Which “Disease Control (%) Spray dry” value (Podosphaera xanthii [2]; spray dried formulation of the strain) does the source give for CC(C)(C)C(O)(CCc1ccc(Cl)cc1)Cn1cncn1 (stereo not drawn) [Tebuconazole, tebuconazole] here?
Its value is 96.0 (a) %.

What about the “Disease Control (%) Tray dry Dried at 25° C.” value (Podosphaera xanthii [2]; tray dried formulation dried at 25° C.) of the same molecule?
The value was 96.0 (a) %.

And the “Disease Control (%) Tray dry Dried at 40° C.” value (Podosphaera xanthii [2]; tray dried formulation dried at 40° C.)?
Its value is 96.0 (a) %.

What about the “Disease Control (%) Confirmation” value (Podosphaera xanthii [3]; confirmation) of the same molecule?
Its value is 75.0 (a) %.

And the “Disease Control (%) Primary Screen” value (Podosphaera xanthii [3]; treated 24 h before inoculation, six days incubation)?
Its value is 87.5 (a) %.
